Values quoted from earlier work in US20210189389A1, “METHODS OF MODULATING ANK1” (SOCIETE DES PRODUITS NESTLE S.A., priority 2017, published 2021).

Tested on: ANK1
Conditions: effect on ANK1 expression, from Comparative Toxicogenomics Database and cited reference

Molecule	Interaction Actions
CC(=O)Nc1ccc(O)cc1 [Acetaminophen]	affects expression
CCCCc1oc2ccccc2c1C(=O)c1cc(I)c(OCCN(CC)CC)c(I)c1 [Amiodarone]	affects expression
c1ccc2c(c1)cc1ccc3cccc4ccc2c1c34 [Benzo(a)pyrene]	decreases expression
NC(=O)N1c2ccccc2C=Cc2ccccc21 [Carbamazepine]	affects expression
CN(C)CCCN1c2ccccc2Sc2ccc(Cl)cc21 [Chlorpromazine]	affects expression
ClC1=C(Cl)[C@]2(Cl)[C@@H]3[C@@H]4C[C@@H]([C@H]5O[C@@H]45)[C@@H]3[C@@]1(Cl)C2(Cl)Cl [Dieldrin]	decreases expression
CCCc1cc(=O)[nH]c(=S)[nH]1 [Propylthiouracil]	decreases expression
CC/C(=C(\c1ccccc1)c1ccc(OCCN(C)C)cc1)c1ccccc1 [Tamoxifen]	affects expression
CC(=N)S [Thioacetamide]	affects expression
CC[C@@]1(O)C(=O)OCc2c1cc1n(c2=O)Cc2cc3c(CN(C)C)c(O)ccc3nc2-1 [Topotecan]	decreases expression
CCCC(CCC)C(=O)O [Valproic Acid]	affects expression
Brc1c(Br)c(Br)c(Oc2c(Br)c(Br)c(Br)c(Br)c2Br)c(Br)c1Br [decabromobiphenyl ether]	decreases expression
O=C1[O][Pt]2([NH][C@@H]3CCCC[C@H]3[NH]2)[O]C1=O [oxaliplatin]	decreases expression
Gentamicins	decreases expression
